Test results from patent US20190008154A1 (priority 2015, published 2019).
Where “and” joins values, the source holds several entries; their conditions need not be identical. Equal entries are not always repeated.

Tested on: P[…] (PYRIOR)
Set-up: species or system Pyricularia oryzae
Conditions: in vivo

Cc1cccc2sc3nncn3c12 [TCA, 5-methyl-1,2,4-triazolo[3,4-b][1,3]benzothiazole]
PYRIOR (% DC) Observed: 100% and 95% and 50.2%
